Reference: patent publication US20220096529A1, “2-HYDROXYPROPYL-BETA-CYCLODEXTRIN (HPBETACD) FOR USE IN THE TREATMENT OF BREAST CANCER” (UNIVERSITY OF THE WITWATERSRAND, JOHANNESBURG, priority 2019, published 2022)
“Also recorded” adds a separate entry of the source. Read-outs that look alike come from different tables or passages of the source.

What was measured:
HEK-293 cells [1] = format: cell-based, human
Method: (§1) Cells were cultured in appropriate medium supplemented with 10% FCS, penicillin (100 U/ml), and streptomycin (100 μg/ml) (Gibco) at 5% CO2 in a 37° C. incubator.
(§2) Four different cell lines were used MCF7 (ER+). MDA-MB-231 (ER−), MRC-5 (Lung Fibroblasts) and HEK-293 (Embryonic kidney). MRC-5 and/or HEK-293 were used as control cell lines depending on availability.
(§3) In order to determine whether HPβCD has the ability to induce cancer cell death a primary screening using an MTT assay was performed. Three different time points 24 hrs.

MRC-5 cells [2] = format: cell-based, human; details: for concentration for 50% growth inhibition in normal cells compared to cancerous cells: MRC-5 and HEK-293 vs cancerous cells
Method: as §1, §2, §3

HEK-293 cells [3] = assay: Cell-APOPercentage apoptosis assay; format: cell-based, human; details: 24 hrs
Method: (§4) APOPercentage assays gives a measure of overall apoptosis in the cell. Apoptosis is an early event and therefore just one time point (24 hrs) was selected and tested on four cell lines MCF7, MDA-MB-231, MRC-5 & HEK-293 cells. 10 μM Plumbagin was used a positive control as opposed to 40 μM from MTT because higher concentrations of plumbagin was way too toxic for the cells and to capture the early activity, optimal dosage was required. To confirm the growth inhibition obtained from the MTT assay was actually due to apoptosis, a Cell-APOPercentage Apoptosis assay was performed according to known methods.

MCF7 cells [4] = assay: Cell-APOPercentage apoptosis assay; format: cell-based, human; details: MCF7, 10 mM HPβCD, 24 hrs
Method: as §4

MDA-MB-231 cells [5] = assay: Cell-APOPercentage apoptosis assay; format: cell-based, human; details: 24 hrs
Method: as §4

MRC-5 cells [6] = assay: Cell-APOPercentage apoptosis assay; format: cell-based, human; details: 24 hrs
Method: as §4

HEK-293 cells [7] = assay: Caspase 3/7 assay; format: cell-based, human; details: HEK-293, 10 mM HPβCD, 24 hrs
Method: (§5) The final step in apoptosis following the intrinsic pathway is the activation of executioner caspases like caspase 3 and caspase 7 […]. Therefore, to confirm that cell death was due to the mitochondrial mediated pathway of apoptosis a Caspase 3/7 assay was conducted. Caspases are activated in response to a myriad of cellular death stimuli and they dismantle the cell. Caspase 3 and caspase 7 contribute to the majority of proteolytic cleavage occurring in apoptosis. As a final step to confirm and validate apoptosis via the mitochondrial intrinsic pathway, the Caspase 3/7 assay was conducted on three cell lines: MCF7, MDA-MB-231 & HEK-293. HPβCD and positive (40 μM PL) were treated for 24 hrs. The percentage of dead/apoptotic cells are clearly indicated in specific corners of each quadrants in the above plots.

MCF7 cells [8] = assay: Caspase 3/7 assay; format: cell-based, human; details: MCF7, 10 mM HPβCD
Method: as §5

MDA-MB-231 cells [9] = assay: Caspase 3/7 assay; format: cell-based, human; details: MDA-MB-231, 10 mM HPβCD, 24 hrs
Method: as §5

MDA-MB-231 cells [10] = assay: Mice xenograft, triple negative breast cancer; format: in vivo, Nude Mice, MF-1 strain
Method: Since the potency of HPβCD against breast cancer was established in our in vitro assays, a thorough investigation in a mice model was conducted (Nude Mice. MF-1 strain). MCF-7 and MDA-MB-231 cells were injected in 32 mice (16 for each cell type) and after tumour development, was treated with HPβCD (3000 mg/kg b.w.). Thrice a week dose treatment plan was followed throughout the study.
To examine if HPβCD can be used as a future anti-breast cancer drug, mice xenografts were prepared. MCF7 cells (5 million) cells were injected in 16 mice with weekly β-estradiol supplementation. The study for triple negative induced breast cancer (MDA-MB-231) is complete. Up to 4 million cells were injected in 16 mice. This was subdivided in three more groups namely: Late stage, intermediate stage and early stage estrogen negative cancer. 4 mice were grouped as untreated (not receiving HPβCD), 4 for treated (late stage), 3 for treated (intermediate stage) and 3 for treated (early stage).
This is because MDA-MB-231 cells are extremely aggressive in nature and that is the reason there is any adequate treatments except the side effects prone to chemotherapy. These 4 mice had to be euthanized at this point because of humane end points. In the late stage treated group, the treatment commenced when the size of the tumour was in between 900 mm^3 to 1350 mm^3 (FIG. 30 A, B, C).
In the intermediate stage group (n=3), the treatment commenced when the size of the tumours reached […]. Again, after 10 doses of HPβCD treatment we saw the average size of the tumours went down to […] which is a staggering 94% decrease (FIG. 31 B, C) as compared to the untreated group. This was remarkable considering how invasive MDA-MB-231 cells are and HPβCD's ability to tame them was quite phenomenal. Finally, in the early stage group (n=3), the treatment commenced when the tumour size was 20 mm^3 (FIG. 33 A. B). […] These 3 mice were then kept for a period of 4 weeks to check for relapse of tumour because estrogen negative tumours have an extreme propensity to recur.

MDA-MB-231 tumours = assay: Filipin cholesterol staining of tumour tissue from mice; format: in vivo; details: intermediate and late stage tumours
Source text: 4 from untreated, 3 from intermediate and 4 from late stage.

MDA-MB-231 cells [11] = assay: BODIPY lipid droplet staining; format: cell-based, human
Source text: Lipid droplets store cholesterol and HPβCD was able to reduce accumulation and storage of cholesterol in cancer cells.

MDA-MB-231 cells [12] = assay: Alexa Fluor lipid raft staining; format: cell-based, human
[13] = intermediate stage, 3000 mg/kg b.w., 10 doses

## 2-hydroxypropyl-β-cyclodextrin [HPβCD]
HEK-293 cells [1]; HEK-293, 24 hrs
  IC50: 22.8 mM
HEK-293 cells [1]; HEK-293, 48 hrs
  IC50: 26.5 mM
HEK-293 cells [1]; HEK-293, 72 hrs
  IC50: 50.3 mM
HEK-293 cells [1]; HEK-293, till 10 mM HPβCD, 24 hrs and 48 hrs
  growth inhibition: absolutely zero growth inhibition
MRC-5 cells [2]; MRC-5, 24 hrs
  IC50: 20.7 mM
MRC-5 cells [2]; MRC-5, 48 hrs
  IC50: 19.9 mM
MRC-5 cells [2]; MRC-5, 72 hrs
  IC50: 41.7 mM
MRC-5 cells [2]; MRC-5, till 10 mM HPβCD, 24 hrs and 48 hrs
  growth inhibition: absolutely zero growth inhibition
MRC-5 cells [2]; 24 hrs
  concentration for 50% growth inhibition in normal cells compared to cancerous cells: almost double
MRC-5 cells [2]; 72 hrs
  concentration for 50% growth inhibition in normal cells compared to cancerous cells: almost five times
HEK-293 cells [3]; HEK-293, 20 mM HPβCD
  cell death (apoptosis): ~15%
HEK-293 cells [3]; HEK-293, 50 mM HPβCD
  cell death (apoptosis): ~18%
HEK-293 cells [3]; HEK-293, till 10 mM HPβCD
  cell death (apoptosis): almost zero percentage cell death
MCF7 cells [4]
  cell death (apoptosis): around 45%
MDA-MB-231 cells [5]; MDA-MB-231, 10 mM HPβCD
  cell death (apoptosis): around 40%
MDA-MB-231 cells [5]; MDA-MB-231, 50 mM HPβCD
  maximum cell death (apoptosis): ~70%
MRC-5 cells [6]; MRC-5, 20 mM HPβCD
  cell death (apoptosis): ~15%
MRC-5 cells [6]; MRC-5, 50 mM HPβCD
  cell death (apoptosis): ~18%
MRC-5 cells [6]; MRC-5, till 10 mM HPβCD
  cell death (apoptosis): almost zero percentage cell death
HEK-293 cells [7]
  Total Live (caspase 3/7): 66.75%
MCF7 cells [8]
  total apoptosis compared to untreated: almost two times more
MCF7 cells [8]; 24 hrs
  Total Apoptotic (caspase 3/7): 12.5%
MDA-MB-231 cells [9]
  Total Apoptotic (caspase 3/7): 48.75%
MDA-MB-231 cells [10]; early stage (20 mm^3 at start), 3000 mg/kg b.w., 10 doses, 3000 mg/kg
  tumour outcome: completely healed; also recorded: Complete healing of tumour
MDA-MB-231 cells [10]; [13]
  average size of the tumours: 784.18 mm3
  tumour reduction compared to the untreated group: 94%
MDA-MB-231 cells [10]; late stage, 3000 mg/kg b.w. intraperitoneally, 10 doses
  tumour reduction compared to the untreated group: 73.9%
MDA-MB-231 cells [10]; three healed early stage mice, 4 weeks
  relapse of tumour: no recurrence of the tumour; also recorded: no relapse at all
MDA-MB-231 tumours
  cholesterol (Filipin staining) in tumours compared to untreated: decreased cholesterol
MDA-MB-231 cells [11]
  lipid droplets (BODIPY) in treated vs untreated cells: decrease in lipid droplets
MDA-MB-231 cells [12]
  lipid rafts (ALEXA FLUOR) in treated vs untreated cells: decrease in lipid rafts
